Organism: Rattus norvegicus
Assay: Open TG-GATES - Regimen: Single
Format: toxicity, organism-based, Sprague-Dawley
Parameters: regimen Single, gender Male, age 6 weeks
Conditions: in vivo, po, 0 mg/kg, route gavage, dose level Control; for APTT / Bas / Eos / Fbg / Hb / Ht / Lym / MCH / MCHC / MCV / Mono / Neu / PT / Plat / RBC / Ret / WBC: tissue Blood; for KIDNEY_L / KIDNEY_R / KIDNEY_TOTAL: tissue Kidney; for LIVER: tissue Liver; for A/G / ALP / ALT / AST / BUN / CRE / Ca / Cl / DBIL / GLC / IP / K / LDH / Na / PL / RALB / TBIL / TC / TG / TP / gamma-GTP: tissue Plasma

CC1=C(/C=C/C(C)=C/C=C/C(C)=C/CO)C(C)(C)CCC1 [RETINOL]
TERMINAL_BW (3 h): 195.7 g
APTT (3 h): 22 s
Bas (3 h): 0%
Eos (3 h): 0.8%
Fbg (3 h): 294.8 mg/dL
Hb (3 h): 13.3 g/dL
Ht (3 h): 38.7%
Lym (3 h): 79.4%
MCH (3 h): 21.4 pg
MCHC (3 h): 34.5%
MCV (3 h): 62.2 fL
Mono (3 h): 2%
Neu (3 h): 16.8%
PT (3 h): 15.8 s
Plat (3 h): 108.5 x10_4/uL
RBC (3 h): 621.4 x10_4/ul
Ret (3 h): 8.9%
WBC (3 h): 97.5 x10_2/uL
KIDNEY_L (3 h): 0.9 g
KIDNEY_R (3 h): 0.9 g
KIDNEY_TOTAL (3 h): 1.8 g
LIVER (3 h): 9 g
A/G (3 h): 1.3
ALP (3 h): 1760.6 IU/L
ALT (3 h): 48 IU/L
AST (3 h): 83.6 IU/L
BUN (3 h): 12.8 mg/dL
CRE (3 h): 0.2 mg/dL
Ca (3 h): 10.6 mg/dL
Cl (3 h): 107.6 meq/L
DBIL (3 h): 0 mg/dL
GLC (3 h): 181 mg/dL
IP (3 h): 8.4 mg/dL
K (3 h): 3.8 meq/L
LDH (3 h): 265.2 IU/L
Na (3 h): 142.2 meq/L
PL (3 h): 148.6 mg/dL
RALB (3 h): 3.2 g/dL
TBIL (3 h): 0.012 mg/dL
TC (3 h): 77 mg/dL
TG (3 h): 58.6 mg/dL
TP (3 h): 5.6 g/dL
gamma-GTP (3 h): 2.8 IU/L
TERMINAL_BW (6 h): 199.1 g
APTT (6 h): 21.6 s
Bas (6 h): 0%
Eos (6 h): 0.6%
Fbg (6 h): 309.6 mg/dL
Hb (6 h): 13.5 g/dL
Ht (6 h): 38.8%
Lym (6 h): 77%
MCH (6 h): 21.6 pg
MCHC (6 h): 34.9%
MCV (6 h): 61.8 fL
Mono (6 h): 3%
Neu (6 h): 18.8%
PT (6 h): 15.7 s
Plat (6 h): 114.9 x10_4/uL
RBC (6 h): 628.2 x10_4/ul
Ret (6 h): 8.5%
WBC (6 h): 113.2 x10_2/uL
KIDNEY_L (6 h): 1 g
KIDNEY_R (6 h): 1 g
KIDNEY_TOTAL (6 h): 1.9 g
LIVER (6 h): 9.2 g
A/G (6 h): 1.3
ALP (6 h): 1700 IU/L
ALT (6 h): 36.8 IU/L
AST (6 h): 67.8 IU/L
BUN (6 h): 10.6 mg/dL
CRE (6 h): 0.1 mg/dL
Ca (6 h): 10.9 mg/dL
Cl (6 h): 106.4 meq/L
DBIL (6 h): 0.014 mg/dL
GLC (6 h): 181.4 mg/dL
IP (6 h): 9.9 mg/dL
K (6 h): 4.5 meq/L
LDH (6 h): 223.6 IU/L
Na (6 h): 142 meq/L
PL (6 h): 152 mg/dL
RALB (6 h): 3.2 g/dL
TBIL (6 h): 0.022 mg/dL
TC (6 h): 80.6 mg/dL
TG (6 h): 79.6 mg/dL
TP (6 h): 5.5 g/dL
gamma-GTP (6 h): 1.2 IU/L
TERMINAL_BW (9 h): 198.5 g
APTT (9 h): 21.2 s
Bas (9 h): 0%
Eos (9 h): 0.6%
Fbg (9 h): 303.2 mg/dL
Hb (9 h): 13.1 g/dL
Ht (9 h): 38.3%
Lym (9 h): 81.4%
MCH (9 h): 21.6 pg
MCHC (9 h): 34.3%
MCV (9 h): 63 fL
Mono (9 h): 2.6%
Neu (9 h): 15%
PT (9 h): 15.8 s
Plat (9 h): 122.4 x10_4/uL
RBC (9 h): 608.2 x10_4/ul
Ret (9 h): 7.9%
WBC (9 h): 88.4 x10_2/uL
KIDNEY_L (9 h): 0.9 g
KIDNEY_R (9 h): 0.9 g
KIDNEY_TOTAL (9 h): 1.9 g
LIVER (9 h): 8.3 g
A/G (9 h): 1.2
ALP (9 h): 1691.8 IU/L
ALT (9 h): 33.8 IU/L
AST (9 h): 72.2 IU/L
BUN (9 h): 10 mg/dL
CRE (9 h): 0.1 mg/dL
Ca (9 h): 10.8 mg/dL
Cl (9 h): 107.8 meq/L
DBIL (9 h): 0 mg/dL
GLC (9 h): 183 mg/dL
IP (9 h): 10.8 mg/dL
K (9 h): 4.4 meq/L
LDH (9 h): 302 IU/L
Na (9 h): 142 meq/L
PL (9 h): 131.2 mg/dL
RALB (9 h): 2.9 g/dL
TBIL (9 h): 0.018 mg/dL
TC (9 h): 73.4 mg/dL
TG (9 h): 52.2 mg/dL
TP (9 h): 5.4 g/dL
gamma-GTP (9 h): 4.4 IU/L
TERMINAL_BW (24 h): 205.1 g
APTT (24 h): 20.8 s
Bas (24 h): 0%
Eos (24 h): 0.8%
Fbg (24 h): 294 mg/dL
Hb (24 h): 13.1 g/dL
Ht (24 h): 37.7%
Lym (24 h): 79.4%
MCH (24 h): 21.9 pg
MCHC (24 h): 34.8%
MCV (24 h): 63.2 fL
Mono (24 h): 2.6%
Neu (24 h): 16.6%
PT (24 h): 16.1 s
Plat (24 h): 119.1 x10_4/uL
RBC (24 h): 598.2 x10_4/ul
Ret (24 h): 7.8%
WBC (24 h): 85.8 x10_2/uL
KIDNEY_L (24 h): 0.9 g
KIDNEY_R (24 h): 0.9 g
KIDNEY_TOTAL (24 h): 1.9 g
LIVER (24 h): 9.7 g
A/G (24 h): 1.3
ALP (24 h): 1692.4 IU/L
ALT (24 h): 41.8 IU/L
AST (24 h): 71.8 IU/L
BUN (24 h): 17.6 mg/dL
CRE (24 h): 0.2 mg/dL
Ca (24 h): 10.7 mg/dL
Cl (24 h): 105.6 meq/L
DBIL (24 h): 0.006 mg/dL
GLC (24 h): 181.6 mg/dL
IP (24 h): 6.4 mg/dL
K (24 h): 4.3 meq/L
LDH (24 h): 245.8 IU/L
Na (24 h): 141.2 meq/L
PL (24 h): 154.2 mg/dL
RALB (24 h): 3.1 g/dL
TBIL (24 h): 0.016 mg/dL
TC (24 h): 79.6 mg/dL
TG (24 h): 79.2 mg/dL
TP (24 h): 5.5 g/dL
gamma-GTP (24 h): 1.2 IU/L

Source: ChEMBL document CHEMBL3885861, “Open TG-GATES”
